In patent US12479886B2, “Inhibitors of IL-15 and their use in treating autoimmune/inflammatory disorders” (University of Houston System, priority 2019, dated 2025):
Bridge positions count the residues as written; N and C are the ends. Square brackets hold non-standard residues; d marks the D form. Peptide text beside a SMILES is read from it. I, II: the chains in the order shown. N(4-MeOBn)Gly = COc1ccc(CNCC(=O)O)cc1; Nleu = CC(C)CNCC(=O)O; Nlys = NCCCCNCC(=O)O; Nme = COCCNCC(=O)O

Tests used:
IL-15 = test: CTLL-2 proliferation assay (WST-1); type: cell-based, murine
Protocol: (§1) FIGS. 7A-C. IFRA3Q1 inhibits the IL-15 activity. To determine if IFRA3 and its derivatives can regulate the function of IL-15, the inventors performed CTLL-2 proliferation assay. The proliferation of murine T cell line CTLL-2 depends on the presence and activity of IL-15. CTLL-2 cells were seeded into 96-well plates and treated with IL-15 in the presence or absence of IFRA3D1, IFRA3T1, or IFRA3Q1 at indicated concentrations for 72 hours. CTLL-2 cell proliferation was measured by WST-1 assay.
as §1, with “To determine” for “FIGS. 7A-C. IFRA3Q1 inhibits the IL-15 activity. To determine”, “WST-1 assay. […] IFRA3 and its derivatives had no effects on cell proliferation by themselves.” for “WST-1 assay.”

IL-15 Rα = biological target: T1, IL-15 Rα (Homo sapiens, UniProt Q13261); test: on-bead two-color (OBTC) screening and validation with IL-15Rα expressing and non-expressing HeLa cells; type: cell-based
T1 construct: Cell lysates from IL-15RA positive HeLa cells (expressing IL15RA) or IL-15RA negative HeLa cells (transfected with IL15RA siRNA to knock down IL15RA); endogenous in cells; host or cells: HeLa
Protocol: FIGS. 1A-C. Discovery of the IL-15 receptor a subunit-binding compound IFRA3 through OBTC screening of a peptoid library. To identify compounds that can bind to IL-15 receptor, the inventors performed an on-bead two-color (OBTC) screening experiment. HeLa cells expressing IL-15 Rα were stained with red Qdot® […] nanocrystals and HeLa cells not expressing IL-15 Rα were stained with green Qdot® […] nanocrystals. One million green cells and one million red cells were mixed and incubated for 1 hour with 50,000 peptoid compound library beads containing one-compound on one bead at 23° C. Beads that bind to only red cells but not green cells were isolated under fluorescent microscope and the compound attached to the bead was identified by mass spectrometry. (FIG. 1A) Illustration of the OBTC screening mechanism. (FIG. 1B) One example of the bead that binds only the red cells. (FIG. 1C) The chemical structure of IFRA3, one of the three hits discovered in this screening.
FIG. 3. Validation of the binding of IFRA3 to IL-15 receptor a subunit using OBTC. The compound IFRA3 was resynthesized on the beads and were incubated with IL-15 RA expressing HeLa cells (red stained) and IL-15RA negative HeLa cells (green stained) individually as well as 1:1 mixture of red and green cells. […]

[1] = biological target: T2, IL-15 receptor a (IL15RA) (Homo sapiens, UniProt Q13261); test: in vitro pull-down assay with peptoid-conjugated beads and HeLa cell lysates, Coomassie staining and western blot; type: binding; conditions: beads conjugated with compound, 4° C. overnight; band identity confirmed by western blot
T2 construct: Cell lysates from IL-15RA positive HeLa cells (expressing IL15RA) or IL-15RA negative HeLa cells (transfected with IL15RA siRNA to knock down IL15RA); endogenous in cells; host or cells: HeLa
Protocol: FIGS. 2A-B. Confirmation of the binding of IFRA3 to IL-15 receptor a subunit. […] Cell lysates from IL-15RA positive HeLa cells (expressing IL15RA) or IL-15RA negative HeLa cells (transfected with IL15RA siRNA to knock down IL15RA) were incubated with beads conjugated with IFRA1, or IFRA2, or IFRA3 at 4° C. overnight. The beads were then washed with RIPA buffer for 3 times, and the binding proteins were eluted with 1% SDS. The yielded lysates were then applied onto 12% SDS-PAGE gel and subjected to Coomassie blue staining. (FIG. 2B) Protein in the gel was transferred to membrane and identified by western blotting analysis with antibody against IL-15RA.
Cell lysates from IL-15RA positive HeLa cells (expressing IL15RA) or IL-15RA negative HeLa cells (transfected with IL15RA siRNA to knock down IL15RA) were incubated with beads conjugated with IFRA1, or IFRA2, or IFRA3 at 4° C. overnight. The beads were then washed with RIPA buffer for 3 times, and the binding proteins were eluted with 1% SDS. The yielded lysates were then applied onto 12% SDS-PAGE gel and subjected to Coomassie blue staining. Protein in the gel was transferred to membrane and identified by western blotting analysis with antibody against IL-15RA. […] Western blot results confirmed the identity of the protein band as IL15RA. Thus, the data support that IFRA3 can bind to IL15RA.

T1 sequence (Q13261 31-267): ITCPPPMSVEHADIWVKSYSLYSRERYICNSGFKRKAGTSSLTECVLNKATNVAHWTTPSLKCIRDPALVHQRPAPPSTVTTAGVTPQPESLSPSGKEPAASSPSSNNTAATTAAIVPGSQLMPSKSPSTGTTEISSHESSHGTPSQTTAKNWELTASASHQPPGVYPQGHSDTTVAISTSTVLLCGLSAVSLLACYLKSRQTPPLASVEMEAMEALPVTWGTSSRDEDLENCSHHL
T2 sequence (Q13261 31-267): as above

SMILES: COCCN(CC(=O)NC(CCCCN)C(=O)NC(CCSC)C(=O)NCCCCC(NC(=O)C(CCCCNC(=O)C(CCSC)NC(=O)C(CCCCN)NC(=O)CN(CCOC)C(=O)CN(CCCCN)C(=O)CN(CCCCN)C(=O)CN(CCOC)C(=O)CN(Cc1ccc(OC)cc1)C(=O)CNCC(C)C)NC(=O)C(CCSC)NC(=O)C(CCCCN)NC(=O)CN(CCOC)C(=O)CN(CCCCN)C(=O)CN(CCCCN)C(=O)CN(CCOC)C(=O)CN(Cc1ccc(OC)cc1)C(=O)CNCC(C)C)C(N)=O)C(=O)CN(CCCCN)C(=O)CN(CCCCN)C(=O)CN(CCOC)C(=O)CN(Cc1ccc(OC)cc1)C(=O)CNCC(C)C (centres unmarked) [IFRA3T1] (I: H-[Nleu][N(4-MeOBn)Gly][Nme][Nlys][Nlys][Nme]KMKK-NH2 / II: H-[Nleu][N(4-MeOBn)Gly][Nme][Nlys][Nlys][Nme]KM / III: H-[Nleu][N(4-MeOBn)Gly][Nme][Nlys][Nlys][Nme]KM; amide I:9-II:C, I:10-III:C; configuration not given here)
- inhibition of IL-15-stimulated proliferation of CTLL-2 cells (IL-15; with IL-15, 72 hours, WST-1): less effects

SMILES: COCCN(CC(=O)NC(CCCCN)C(=O)NC(CCSC)C(N)=O)C(=O)CN(CCCCN)C(=O)CN(CCCCN)C(=O)CN(CCOC)C(=O)CN(Cc1ccc(OC)cc1)C(=O)CNCC(C)C (centres unmarked) [IFRA3] (H-[Nleu][N(4-MeOBn)Gly][Nme][Nlys][Nlys][Nme]KM-NH2; configuration not given here)
- binding of cells to beads with resynthesized compound (OBTC validation) (IL-15 Rα; IL-15RA expressing (red) and negative (green) HeLa cells, individually and as 1:1 mixture): only red cells bind to the beads, and the green cells do not bind
- binding to IL-15 receptor subunit a in OBTC screen (hit) (IL-15 Rα; peptoid library beads, red IL-15Rα+ and green IL-15Rα- HeLa cells, 1 hour, 23° C.): binds to the IL-15 receptor subunit a
- pull-down of IL15RA from cell lysates [1]: can pull down a protein band corresponding to the size of IL15RA
- effect on cell proliferation by themselves (IL-15; CTLL-2 cells, compound alone without IL-15): no effects
